Measurements reported in ChEMBL document CHEMBL5576106, “Highly Functionalized Spirobisnaphthalenes from Roussoella sp. KT4147” (J Nat Prod, 2024).

System: COLO 201
Assay: Cytotoxicity against human COLO201 cells assessed as inhibition of cell growth incubated for 24 hrs by WST-1 assay
Type: functional, cell-based
Conditions: COLO 201, 24 h

| SMILES | IC50 [µM] |
| --- | --- |
| COc1cc(=O)oc2c1[C@H](CO)[C@@H]1[C@H](C2)C(=O)c2cccc3c2[C@@]12Oc1ccc(O)c4c1[C@](O3)(O2)[C@@H]1O[C@@H]1C4=O | 5.4 |
| CC[C@@]1(O)C(=O)OCc2c1cc1n(c2=O)Cc2cc3ccccc3nc2-1 [CAMPTOTHECIN] | 27 |
| O=C1C[C@@H](N[C@@H]2CC(=O)c3cccc4c3[C@@]23Oc2ccc(O)c5c2[C@](O4)(O3)[C@@H]2O[C@@H]2C5=O)[C@]23Oc4ccc(O)c5c4[C@](Oc4cccc1c42)(O3)[C@@H]1O[C@@H]1C5=O | 5.7 |
| Oc1ccc(O)c2c1[C@@H](O)C[C@@H](O)C21Oc2cccc3cccc(c23)O1 | 9.8 |
| O=C1C=CC(=O)C2=C1[C@@H](O)[C@H]1O[C@H]1C21Oc2cccc3cccc(c23)O1 | 9.4 |
